Data from the Kinase Knowledgebase extract (Sharma et al. 2016).

Biological target: MAPK14 (human) (UniProt Q16539)
Assay: Inhibition of MAPK14 Kinase Activity

Chain of MAPK14 (human) (Q16539 whole entry, looked up): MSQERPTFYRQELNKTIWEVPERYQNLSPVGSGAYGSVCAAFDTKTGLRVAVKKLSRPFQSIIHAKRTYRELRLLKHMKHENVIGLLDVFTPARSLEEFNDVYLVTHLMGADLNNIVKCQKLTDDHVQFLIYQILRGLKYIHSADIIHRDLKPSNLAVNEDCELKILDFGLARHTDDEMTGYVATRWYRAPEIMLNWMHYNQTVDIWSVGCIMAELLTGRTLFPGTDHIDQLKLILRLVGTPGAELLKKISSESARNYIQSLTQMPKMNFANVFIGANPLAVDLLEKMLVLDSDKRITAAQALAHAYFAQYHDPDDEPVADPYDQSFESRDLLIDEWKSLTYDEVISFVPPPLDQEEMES

IC50, < 10 µM:
CSc1nc(-c2ccccc2F)c2ccc(=O)n(-c3ccccc3Cl)c2n1, CCC(C)n1c(=O)ccc2c(-c3ccccc3F)nc(SC)nc21 (stereo not given), Cc1cc(F)ccc1-c1nc(NCc2ncc[nH]2)nc2c1ccc(=O)n2-c1c(F)cccc1F, CSc1nc(NC2CCCCC2)c(C=O)c(-c2ccc(F)cc2C)n1, Cc1cc(F)ccc1-c1nc(NC(CO)CO)nc2c1ccc(=O)n2-c1c(C)cccc1C, Cc1cc(F)ccc1-c1nc(N[C@H]2CC[C@H](O)CC2)nc2c1ccc(=O)n2-c1ccccc1C, O=c1ccc2c(-c3ccccc3Cl)nc(OCCO)nc2n1-c1ccccc1Cl, CSc1nc(-c2ccccc2F)c2ccc(=O)n(-c3ccccc3F)c2n1, Cc1cc(F)ccc1-c1nc(N[C@@H]2CS(=O)(=O)C[C@H]2O)nc2c1ccc(=O)n2-c1c(F)cccc1F, CSc1nc(-c2ccccc2F)c2ccc(=O)n(-c3c(F)cccc3F)c2n1, Cc1cc(F)ccc1-c1nc(N2CCOCC2)nc2c1ccc(=O)n2-c1ccccc1C, Cc1cc(F)ccc1-c1nc(NCCc2noc(=O)[nH]2)nc2c1ccc(=O)n2-c1c(F)cccc1F, Cc1cc(F)ccc1-c1nc(NCCNC(=O)CNC(=O)OC(C)(C)C)nc2c1ccc(=O)n2-c1c(F)cccc1F, CCN(CC)CCNc1nc(-c2ccccc2Cl)c2ccc(=O)n(-c3ccccc3Cl)c2n1, Cc1cc(F)ccc1-c1nc(NCC(=O)N2CCCC2)nc2c1ccc(=O)n2-c1c(F)cccc1F
